Measured values as given in PubChem BioAssay (NCI).
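1) Cells in 96-well plates. 2) Compound, 48 h, 5 concentrations. 3) Linear interpolation between surrounding doses. 4) Unreached endpoint = highest concentration. TGI is the concentration that stops growth completely.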

How the values were obtained:
Assay in all cases: NCI-60 cell line screen, 48 h
786-0 renal = tested on: 786-0 renal
A498 renal = tested on: A498 renal
A549 NSCLC = tested on: A549 NSCLC
ACHN renal = tested on: ACHN renal
CAKI-1 renal = tested on: CAKI-1 renal
CCRF-CEM leukemia = tested on: CCRF-CEM leukemia
COLO 205 colon = tested on: COLO 205 colon
DLD-1 colon = tested on: DLD-1 colon
DMS 114 small cell lung = tested on: DMS 114 small cell lung
DMS 273 small cell lung = tested on: DMS 273 small cell lung
EKVX NSCLC = tested on: EKVX NSCLC
HCC-2998 colon = tested on: HCC-2998 colon
HCT-116 colon = tested on: HCT-116 colon
HCT-15 colon = tested on: HCT-15 colon
HL-60(TB) leukemia = tested on: HL-60(TB) leukemia
HOP-18 NSCLC = tested on: HOP-18 NSCLC
HOP-62 NSCLC = tested on: HOP-62 NSCLC
IGROV1 ovarian = tested on: IGROV1 ovarian
K-562 leukemia = tested on: K-562 leukemia
KM12 colon = tested on: KM12 colon
KM20L2 colon = tested on: KM20L2 colon
LXFL 529 NSCLC = tested on: LXFL 529 NSCLC
M14 melanoma = tested on: M14 melanoma
M19-MEL melanoma = tested on: M19-MEL melanoma
MALME-3M melanoma = tested on: MALME-3M melanoma
NCI-H226 lung = tested on: NCI-H226 lung
NCI-H23 lung = tested on: NCI-H23 lung
NCI-H460 lung = tested on: NCI-H460 lung
NCI-H522 lung = tested on: NCI-H522 lung
OVCAR-3 ovarian = tested on: OVCAR-3 ovarian
OVCAR-4 ovarian = tested on: OVCAR-4 ovarian
OVCAR-5 ovarian = tested on: OVCAR-5 ovarian
OVCAR-8 ovarian = tested on: OVCAR-8 ovarian
RPMI-8226 leukemia = tested on: RPMI-8226 leukemia
RXF 393 renal = tested on: RXF 393 renal
SF-268 CNS = tested on: SF-268 CNS
SF-295 CNS = tested on: SF-295 CNS
SF-539 CNS = tested on: SF-539 CNS
SK-MEL-2 melanoma = tested on: SK-MEL-2 melanoma
SK-MEL-5 melanoma = tested on: SK-MEL-5 melanoma
SK-OV-3 ovarian = tested on: SK-OV-3 ovarian
SN12C renal = tested on: SN12C renal
SNB-19 CNS = tested on: SNB-19 CNS
SNB-75 CNS = tested on: SNB-75 CNS
SNB-78 CNS = tested on: SNB-78 CNS
SW-620 colon = tested on: SW-620 colon
TK-10 renal = tested on: TK-10 renal
U251 CNS = tested on: U251 CNS
UACC-257 melanoma = tested on: UACC-257 melanoma
UACC-62 melanoma = tested on: UACC-62 melanoma
UO-31 renal = tested on: UO-31 renal
XF 498 CNS = tested on: XF 498 CNS
HOP-92 NSCLC = tested on: HOP-92 NSCLC
HT29 colon = tested on: HT29 colon
LOX IMVI melanoma = tested on: LOX IMVI melanoma
MOLT-4 leukemia = tested on: MOLT-4 leukemia
SK-MEL-28 melanoma = tested on: SK-MEL-28 melanoma
SR leukemia = tested on: SR leukemia

Cn1c(=O)nc2n(-c3cccc(Br)c3)c3ccccc3nc-2c1=O
TGI (786-0 renal): 16.7 µM
TGI (A498 renal): 22.1 µM
TGI (A549 NSCLC): 14.5 µM
TGI (ACHN renal): 13.7 µM
TGI (CAKI-1 renal): 32.7 µM
TGI (CCRF-CEM leukemia): 26.9 µM
TGI (COLO 205 colon): 9.64 µM
TGI (DLD-1 colon): 29.1 µM
TGI (DMS 114 small cell lung): 4.45 µM
TGI (DMS 273 small cell lung): 14.7 µM
TGI (EKVX NSCLC): 13.3 µM
TGI (HCC-2998 colon): 9.59 µM
TGI (HCT-116 colon): 18.1 µM
TGI (HCT-15 colon): 15.1 µM
TGI (HL-60(TB) leukemia): 9.76 µM
TGI (HOP-18 NSCLC): 19.4 µM
TGI (HOP-62 NSCLC): 28 µM
TGI (IGROV1 ovarian): 23.7 µM
TGI (K-562 leukemia): 35.9 µM
TGI (KM12 colon): 21 µM
TGI (KM20L2 colon): 6.97 µM
TGI (LXFL 529 NSCLC): 19.5 µM
TGI (M14 melanoma): 10.1 µM
TGI (M19-MEL melanoma): 3.03 µM
TGI (MALME-3M melanoma): 6.46 µM
TGI (NCI-H226 lung): 22.2 µM
TGI (NCI-H23 lung): 4.91 µM
TGI (NCI-H460 lung): 12.2 µM
TGI (NCI-H522 lung): 20.1 µM
TGI (OVCAR-3 ovarian): 5.94 µM
TGI (OVCAR-4 ovarian): 14.6 µM
TGI (OVCAR-5 ovarian): 26.1 µM
TGI (OVCAR-8 ovarian): 25.4 µM
TGI (RPMI-8226 leukemia): 37.7 µM
TGI (RXF 393 renal): 24 µM
TGI (SF-268 CNS): 23.4 µM
TGI (SF-295 CNS): 18.6 µM
TGI (SF-539 CNS): 18.2 µM
TGI (SK-MEL-2 melanoma): 18.2 µM
TGI (SK-MEL-5 melanoma): 3.41 µM
TGI (SK-OV-3 ovarian): 50.5 µM
TGI (SN12C renal): 17.1 µM
TGI (SNB-19 CNS): 6.86 µM
TGI (SNB-75 CNS): 22.2 µM
TGI (SNB-78 CNS): 33.3 µM
TGI (SW-620 colon): 8.53 µM
TGI (TK-10 renal): 24.1 µM
TGI (U251 CNS): 19.2 µM
TGI (UACC-257 melanoma): 6.58 µM
TGI (UACC-62 melanoma): 3.27 µM
TGI (UO-31 renal): 26.3 µM
TGI (XF 498 CNS): 15.8 µM

N#CC(C(=O)CCC(=O)C(C#N)c1ccccc1)c1ccccc1 (centres undefined)
TGI (786-0 renal): > 100 µM
TGI (A498 renal): > 100 µM
TGI (A549 NSCLC): > 100 µM
TGI (ACHN renal): > 100 µM
TGI (CAKI-1 renal): > 100 µM
TGI (CCRF-CEM leukemia): > 100 µM
TGI (COLO 205 colon): > 100 µM
TGI (DLD-1 colon): > 100 µM
TGI (DMS 114 small cell lung): > 100 µM
TGI (DMS 273 small cell lung): > 100 µM
TGI (EKVX NSCLC): > 100 µM
TGI (HCC-2998 colon): > 100 µM
TGI (HCT-116 colon): > 100 µM
TGI (HCT-15 colon): > 100 µM
TGI (HL-60(TB) leukemia): > 100 µM
TGI (HOP-18 NSCLC): > 100 µM
TGI (HOP-62 NSCLC): > 100 µM
TGI (HOP-92 NSCLC): > 100 µM
TGI (HT29 colon): > 100 µM
TGI (IGROV1 ovarian): > 100 µM
TGI (K-562 leukemia): > 100 µM
TGI (KM12 colon): > 100 µM
TGI (LOX IMVI melanoma): > 100 µM
TGI (LXFL 529 NSCLC): > 100 µM
TGI (M14 melanoma): > 100 µM
TGI (M19-MEL melanoma): > 100 µM
TGI (MALME-3M melanoma): > 100 µM
TGI (MOLT-4 leukemia): > 100 µM
TGI (NCI-H226 lung): > 100 µM
TGI (NCI-H23 lung): > 100 µM
TGI (NCI-H460 lung): > 100 µM
TGI (NCI-H522 lung): > 100 µM
TGI (OVCAR-3 ovarian): > 100 µM
TGI (OVCAR-4 ovarian): > 100 µM
TGI (OVCAR-5 ovarian): > 100 µM
TGI (OVCAR-8 ovarian): > 100 µM
TGI (RPMI-8226 leukemia): > 100 µM
TGI (RXF 393 renal): > 100 µM
TGI (SF-268 CNS): > 100 µM
TGI (SF-295 CNS): > 100 µM
TGI (SF-539 CNS): > 100 µM
TGI (SK-MEL-2 melanoma): > 100 µM
TGI (SK-MEL-28 melanoma): > 100 µM
TGI (SK-MEL-5 melanoma): > 100 µM
TGI (SK-OV-3 ovarian): > 100 µM
TGI (SN12C renal): > 100 µM
TGI (SNB-19 CNS): > 100 µM
TGI (SNB-75 CNS): > 100 µM
TGI (SNB-78 CNS): > 100 µM
TGI (SR leukemia): > 100 µM
TGI (SW-620 colon): > 100 µM
TGI (TK-10 renal): > 100 µM
TGI (U251 CNS): > 100 µM
TGI (UACC-257 melanoma): > 100 µM
TGI (UACC-62 melanoma): > 100 µM
TGI (UO-31 renal): > 100 µM
TGI (XF 498 CNS): > 100 µM
